The IC50 is the concentration needed to halve the response being measured.

Assay [1] deals with T1, HIV-1 RT enzyme (wild type) (Human immunodeficiency virus type 1 group M subtype B, UniProt P04585).
T1 construct: The reverse transcriptase (RT) enzyme assay has been adapted to a 96-well microtiter plate format
Description: Reverse transcriptase (RT) enzymatic assay (IC50), PicoGreen fluorescence, wild type. In kind it is biochemical. The conditions noted are these: RT enzymatic assay, wild type; read-out: IC50 WT. As for the experimental part:
(§1) Reverse Transcriptase (RT) Assays Enzymatic Assay (IC50)
The enzymatic assay employed is described as follows: The reverse transcriptase (RT) enzyme assay has been adapted to a 96-well microtiter plate format and uses PicoGreen™ as a fluorescent intercalator. More explicitly, the HIV-1 RT enzyme was thawed and appropriately diluted into Tris/HCl 50 mM pH 7.8 containing NaCl 60 mM, MgCl2∘6H2O 2 mM, DTT 6 mM, GSH 2 mM and 0.02% w/v Chaps to give ≈10 nM enzyme. […] The plate was pre-incubated for 15 minutes at room temperature before proceeding to the next step. […] Then the enzymatic reaction was initiated by addition of 20 μL of substrate solution. […] After addition of the substrate cocktail, the plate was covered with a plastic seal and incubated for 50 minutes at 37° C. in a dry incubator. The reaction was then quenched by addition of 5 μL of EDTA 0.5 M. The plate was shaken for 30 seconds at medium speed and incubated for 5 minutes at room temperature. Then 160 μL of PicoGreen™ 1:400 dilution from commercial stock (diluted in Tris 20 mM pH 7.5 with EDTA 1 mM) was added and the plate was shaken for 30 seconds and incubated for 10 minutes at room temperature. […] Each row contained at its extremities a blank and a control well.
(§2) Table legend: A=>100; B=100-50; C=<50; NT=not tested

Assay [2] concerns the target T2, HIV-1 RT resistant mutant K103N/Y181C (Human immunodeficiency virus type 1 group M subtype B, UniProt P04585, K690N/Y768C).
T2 construct: The reverse transcriptase (RT) enzyme assay has been adapted to a 96-well microtiter plate format
Description: Reverse transcriptase (RT) enzymatic assay (IC50), PicoGreen fluorescence, resistant mutant. In kind it is biochemical. As for the experimental part:
as §1
The enzymatic assay employed is described as follows: The reverse transcriptase (RT) enzyme assay has been adapted to a 96-well microtiter plate format and uses PicoGreen™ as a fluorescent intercalator. More explicitly, the HIV-1 RT enzyme was thawed and appropriately diluted into Tris/HCl 50 mM pH 7.8 containing NaCl 60 mM, MgCl2∘6H2O 2 mM, DTT 6 mM, GSH 2 mM and 0.02% w/v Chaps to give ≈10 nM enzyme. To 10 μL of this enzyme solution was added 10 μL of inhibitor solution (40 μM to […] inhibitor in the same assay buffer as above containing 4% v/v DMSO). The plate was pre-incubated for 15 minutes at room temperature before proceeding to the next step. In this pre-incubation step, the highest and lowest inhibitor concentrations were 20 μM and 1.016 nM respectively and the concentration of DMSO was 2% v/v. Then the enzymatic reaction was initiated by addition of 20 μL of substrate solution. The final reaction mixture contained Tris/HCl 50 mM pH 7.8, NaCl 60 mM, MgCl2∘6H2O 2 mM, DTT 6 mM, GSH 2 mM, CHAPS 0.02% w/v, DMSO 1% v/v, poly rC 45 nM, dG15 4.5 nM, dGTP 3.6 μM, and ≈2.5 nM enzyme. In this incubation step, the highest and lowest inhibitor concentrations were 10 μM and 0.508 nM respectively. After addition of the substrate cocktail, the plate was covered with a plastic seal and incubated for 50 minutes at 37° C. in a dry incubator. The reaction was then quenched by addition of 5 μL of EDTA 0.5 M. The plate was shaken for 30 seconds at medium speed and incubated for 5 minutes at room temperature. Then 160 μL of PicoGreen™ 1:400 dilution from commercial stock (diluted in Tris 20 mM pH 7.5 with EDTA 1 mM) was added and the plate was shaken for 30 seconds and incubated for 10 minutes at room temperature. The plate was then analyzed using a POLARstar Galaxy fluorimeter (BMG Labtechnologies) with λex and λem of 485 nm and 520 nm respectively. […] Each row contained at its extremities a blank and a control well.
as §2

Assay [3] deals with HIV-1 (wild type) in C8166 LTRluc cells. Description: C8166 HIV-1 luciferase assay (EC50), wild type. In kind it is cell-based. The conditions noted are these: Human immunodeficiency virus 1, C8166 HIV-1 luciferase assay (no *).
From the text: (§3) C8166 HIV-1 Luciferase Assay (EC50)
(§4) Plasmid: pGL3 Basic LTR/TAR #12
Plasmid is the pGL3 Basic Vector (a promoterless luciferase expression vector from Promega catalogue #E1751) with the addition of HIV-1 H×B2 LTR sequence from nucleotide −138 to +80 (Sca1-HindIII) upstream of the luciferase gene and the gene for blasticidine resistance cloned in.
(§5) C8166 cells are a human T-lymphotrophic virus type 1 immortalized but nonexpressing line of cord blood lymphocytes and are highly permissive to HIV-1 infection. The reporter cells were made by electroporating C8166 cells with pGL3 Basic LTR/TAR and then selecting positive clones with blasticidine. The clone C8166-LTRluc #A8-F5-G7 was selected by 3 consecutive rounds of limiting dilution under blasticidine selection.
(§6) Media: Complete media consisting of: RPMI 1640+10% FBS+10^−5 M
(§7) β-mercaptoethanol+10 μg/ml gentamycin. Cultures are maintained in complete media with 5 μg/ml blasticidine, however, selection is removed for the assay.
(§8) Luciferase Assay Protocol
Serial dilutions of HIV-1 inhibitors compounds are prepared in complete media from 10 mM DMSO stock solutions. Eleven serial dilutions of 2.5× are made at 8× desired final concentration in a 1 ml deep well titer plate (96 wells). The 12th well contains complete media with no inhibitor and serves as the positive control. All samples contain the same concentration of DMSO (≦0.1% DMSO). A 25 μl aliquot of inhibitor is added, to triplicate wells, of a 96 well tissue culture treated clear view black microtiter plate (Corning Costar catalogue # 3904). The last row is reserved for uninfected C8166 LTRluc cells to serve as the background blank control and the first row is media alone.
Count C8166 LTRluc cells and place in a minimal volume of complete RPMI 1640 in a tissue culture flask (ex. 30×10^6 cells in 10 ml media/25 cm^2 flask). Infect cells with HIV-1 at a moi of 0.005. Incubate cells for 1.5 hours at 37° C. on a rotating rack in a 5% CO2 incubator. Resuspend cells in complete RPMI to give a final concentration of 25,000-cells/175 μl. Add 175 μl of cell mix to wells of 96 well microtiter plate containing 25 μl 8× inhibitors. Add 25,000 uninfected C8166-LTRluc cells/well in 200 μl complete RPMI to last row for background control. Incubate cells at 37° C. in 5% CO2 incubator for 3 days.
(§9) Add 50 μl Steady Glo (luciferase substrate T1/2=5 hours Promega catalogue # E2520) to each well of the 96 well plate. Determine the relative light units (RLU) of luciferase using the BMG LUMlstar Galaxy luminometer. Plates are read from the bottom for 2 seconds per well with a gain of 240.
(§10) The level of inhibition (% inhibition) of each well containing inhibitor was calculated with the following equation: […]
The calculated % inhibition values were then used to determine EC50, slope factor (n) and maximum inhibition (Imax) by the non-linear regression routine NLIN procedure of SAS using the following equation: […]
The results are listed in Table 9 as IC50(nM) and EC50 (nM).
as §2

Assay [4] deals with HIV-1 resistant mutant K103N/Y181C in C8166 LTRluc cells. In words: C8166 HIV-1 luciferase assay (EC50), resistant mutant. In kind it is cell-based. The conditions noted are these: Human immunodeficiency virus 1, C8166, read-out: EC50 K103N/Y181C.
From the text: as §3, §4, §5, §6, §7, §8
Eleven serial dilutions of 2.5× are made at 8× desired final concentration in a 1 ml deep well titer plate (96 wells). The 12th well contains complete media with no inhibitor and serves as the positive control. All samples contain the same concentration of DMSO (≦0.1% DMSO). A 25 μl aliquot of inhibitor is added, to triplicate wells, of a 96 well tissue culture treated clear view black microtiter plate (Corning Costar catalogue # 3904). The last row is reserved for uninfected C8166 LTRluc cells to serve as the background blank control and the first row is media alone.
Count C8166 LTRluc cells and place in a minimal volume of complete RPMI 1640 in a tissue culture flask (ex. 30×10^6 cells in 10 ml media/25 cm^2 flask). […] Incubate cells for 1.5 hours at 37° C. on a rotating rack in a 5% CO2 incubator. Resuspend cells in complete RPMI to give a final concentration of 25,000-cells/175 μl. Add 175 μl of cell mix to wells of 96 well microtiter plate containing 25 μl 8× inhibitors. Add 25,000 uninfected C8166-LTRluc cells/well in 200 μl complete RPMI to last row for background control. Incubate cells at 37° C. in 5% CO2 incubator for 3 days.
as §9, §10
The calculated % inhibition values were then used to determine EC50, slope factor (n) and maximum inhibition (Imax) by the non-linear regression routine NLIN procedure of SAS using the following equation:
as §2

In the case of `Cc1ccc(-n2c(CCO)nnc2SCC(=O)Nc2ccc(-c3ccccc3)cc2Cl)c(Cl)c1` [Entry 429], the values for the IC50 in assay [1] and in assay [2] were under 50 nM and over 100 nM, respectively. The EC50 in assay [3] is under 50 nM; in assay [4], over 100 nM.

Regarding `CC(C)(C)c1ccc(-n2nnnc2SCC(=O)Nc2ccc(N)cc2Cl)c(Cl)c1` [Entry 617], the IC50 in assay [1] was under 50 nM; in assay [2], over 100 nM. Also, the EC50 in assay [3] was under 50 nM; in assay [4], 50 to 100 nM.

For `Cc1ccc(-n2nnnc2SCC(=O)Nc2ccc(C(N)=O)cc2Cl)c(Cl)c1` [Entry 504], the figures for the IC50 in assay [1] and in assay [2] were under 50 nM and over 100 nM, respectively. Moreover, the EC50 in assay [3] and in assay [4] was under 50 nM in each case.

In the case of `CC(C)(C)c1ccc(-n2nnnc2SCC(=O)Nc2ccc(CCC(=O)O)cc2Cl)c(Cl)c1` [Entry 601], the 50% inhibitory concentration (IC50) is under 50 nM in assay [1] and over 100 nM in assay [2]. Moreover, the EC50 was under 50 nM in assay [3] and over 100 nM in assay [4].

With `Cc1cc(C(F)(F)F)cc(-n2nnnc2SCC(=O)Nc2ccc(S(N)(=O)=O)cc2Cl)c1Cl` [Entry 703], the IC50 in assay [1] is under 50 nM; in assay [2] it was 50 to 100 nM. Also, the EC50 in assay [3] and in assay [4] was under 50 nM in each case.

Turning to `Cc1ccc(-n2nnnc2SCC(=O)Nc2ccc(-c3ccccc3)cc2C)c(Cl)c1` [Entry 511], the IC50 is under 50 nM in assay [1] and over 100 nM in assay [2]. Further, the figures for the EC50 in assay [3] and in assay [4] were under 50 nM and over 100 nM, respectively.

Turning to `CC(C)(C)c1ccc(-n2nnnc2SCC(=O)Nc2ccc(S(=O)(=O)c3ccccc3)cc2Cl)c(Cl)c1` [Entry 606], the IC50 is under 50 nM in assay [1] and 50 to 100 nM in assay [2]. Besides, the values for the EC50 in assay [3] and in assay [4] were under 50 nM and 50 to 100 nM, respectively.

Turning to `C=CCc1ccc(-n2nnnc2SCC(=O)Nc2ccccc2Cl)c(Cl)c1` [Entry 708], the IC50 in assay [1] was under 50 nM; in assay [2], over 100 nM. Also, the EC50 in assay [3] is under 50 nM; in assay [4], over 100 nM.

As to `O=C(CSc1nnnn1-c1cccc2ccccc12)Nc1ccccc1O` [Entry 211], the IC50 in assay [1] was over 100 nM. For the same molecule, the values for the EC50 in assay [3] and in assay [4] were under 50 nM and over 100 nM, respectively.

With `Cc1ccc(NC(=O)CSc2nnnn2-c2ccc(C(C)(C)C)cc2Cl)c(Cl)n1` [Entry 802], the IC50 in assay [1] was under 50 nM; in assay [2], over 100 nM. The results for the EC50 in assay [3] and in assay [4] were under 50 nM and 50 to 100 nM, respectively.

Take `Cc1ccc(-n2nnnc2SCC(=O)Nc2ccc(C(=O)O)cc2Cl)c(Cl)c1` [Entry 503]: the IC50 is under 50 nM in assay [1] and over 100 nM in assay [2]. Also, the results for the EC50 in assay [3] and in assay [4] were under 50 nM and over 100 nM, respectively.

`CCc1nnc(SCC(=O)Nc2ccccc2[N+](=O)[O-])n1-c1cccc2ccccc12` [Entry 425] gave an IC50 in assay [2] of over 100 nM. Also, the EC50 is under 50 nM in assay [3] and over 100 nM in assay [4].

`CC(C)c1ccc(-n2nnnc2SCC(=O)Nc2ccccc2[N+](=O)[O-])cc1` [Entry 142] came in with an IC50 in assay [2] of over 100 nM. For the same molecule, the EC50 in assay [3] is under 50 nM; in assay [4], over 100 nM.

`Cc1ccc(-n2c(C)nnc2SCC(=O)Nc2ccccc2[N+](=O)[O-])c(Cl)c1` [Entry 427] gave an IC50 in assay [2] of over 100 nM. Besides, the EC50 in assay [3] was under 50 nM; in assay [4], over 100 nM.

In turn, `Cc1ccc(-n2nnnc2SCC(=O)Nc2cccnc2Cl)c(Cl)c1` [Entry 803] displayed an IC50 in assay [2] of over 100 nM. For the same molecule, the EC50 in assay [3] was under 50 nM; in assay [4], over 100 nM.

In the case of `O=C(CSc1nnnn1-c1cccc2ccccc12)Nc1ccccc1Cl` [Entry 208, N-(2-Chlorophenyl)-2-{{1-(1-naphthalenyl)-1H-tetrazol-5-yl}thio}acetamide], the EC50 is under 50 nM in assay [3] and over 100 nM in assay [4].

Regarding `Cc1ccc(-n2c(C)nnc2SCC(=O)Nc2ccc(-c3ccccc3)cc2Cl)c(Cl)c1` [Entry 428], in assay [2], the half-inhibitory concentration (IC50) is over 100 nM. For the same molecule, the EC50 in assay [3] was under 50 nM; in assay [4], over 100 nM.

On to `CCN(CC)c1ccc(-n2nnnc2SCC(=O)Nc2ccccc2[N+](=O)[O-])cc1` [Entry 143], for which, in assay [2], the IC50 is over 100 nM. The EC50 in assay [3] was under 50 nM; in assay [4] it was over 100 nM.

The values are drawn from patent US7642277B2, “Non-nucleoside reverse transcriptase inhibitors” (Boehringer Ingelheim International GmbH, priority 2002, dated 2010).
